Measured values: the NIST ThermoML archive (doi:10.1016/j.fluid.2015.10.026)
± gives the expanded uncertainty stated by the source.

Settings: Liquid, Brillouin light scattering

CCC(C)(C)OC [2-methoxy-2-methylbutane]
Settings | speed of sound [m/s]
363.15 K, 5500 kPa | 897.74 ± 4.6
363.15 K, 7000 kPa | 911.59 ± 4.7
363.15 K, 8500 kPa | 924.74 ± 4.8
363.15 K, 10000 kPa | 937.16 ± 4.8
373.15 K, 120 kPa | 800.06 ± 4.2
373.15 K, 1000 kPa | 810.06 ± 4.2
373.15 K, 2500 kPa | 827.11 ± 4.3
373.15 K, 4000 kPa | 843.38 ± 4.3
373.15 K, 5500 kPa | 858.86 ± 4.4
373.15 K, 7000 kPa | 873.55 ± 4.5
373.15 K, 8500 kPa | 887.46 ± 4.6
373.15 K, 10000 kPa | 900.58 ± 4.6
383.15 K, 160 kPa | 759.72 ± 4
383.15 K, 1000 kPa | 768.09 ± 4
383.15 K, 2500 kPa | 786.2 ± 4.1
383.15 K, 4000 kPa | 803.47 ± 4.2
383.15 K, 5500 kPa | 819.89 ± 4.2
383.15 K, 7000 kPa | 835.47 ± 4.3
383.15 K, 8500 kPa | 850.21 ± 4.4
383.15 K, 10000 kPa | 864.1 ± 4.5
393.15 K, 200 kPa | 719.27 ± 3.8
393.15 K, 1000 kPa | 725.95 ± 3.8
393.15 K, 2500 kPa | 745.14 ± 3.9
393.15 K, 4000 kPa | 763.44 ± 4
393.15 K, 5500 kPa | 780.85 ± 4
393.15 K, 7000 kPa | 797.37 ± 4.2
393.15 K, 8500 kPa | 813 ± 4.2
393.15 K, 10000 kPa | 827.74 ± 4.3
403.15 K, 240 kPa | 678.61 ± 3.6
403.15 K, 1000 kPa | 683.64 ± 3.6
403.15 K, 2500 kPa | 703.93 ± 3.7
403.15 K, 4000 kPa | 723.29 ± 3.8
403.15 K, 5500 kPa | 741.73 ± 3.9
403.15 K, 7000 kPa | 759.25 ± 4
403.15 K, 8500 kPa | 775.83 ± 4.1
403.15 K, 10000 kPa | 791.49 ± 4.1
413.15 K, 300 kPa | 637.63 ± 3.4
413.15 K, 1000 kPa | 641.15 ± 3.4
413.15 K, 2500 kPa | 662.56 ± 3.5
413.15 K, 4000 kPa | 683.02 ± 3.6
413.15 K, 5500 kPa | 702.53 ± 3.7
413.15 K, 7000 kPa | 721.09 ± 3.8
413.15 K, 8500 kPa | 738.7 ± 3.9
413.15 K, 10000 kPa | 755.35 ± 4
423.15 K, 360 kPa | 596.25 ± 3.2
423.15 K, 1000 kPa | 598.5 ± 3.2
423.15 K, 2500 kPa | 621.05 ± 3.3
423.15 K, 4000 kPa | 642.63 ± 3.4
423.15 K, 5500 kPa | 663.25 ± 3.5
423.15 K, 7000 kPa | 682.91 ± 3.6
423.15 K, 8500 kPa | 701.6 ± 3.7
423.15 K, 10000 kPa | 719.33 ± 3.8
433.15 K, 440 kPa | 554.37 ± 3.1
433.15 K, 1000 kPa | 555.68 ± 3
433.15 K, 2500 kPa | 579.38 ± 3.1
433.15 K, 4000 kPa | 602.12 ± 3.2
433.15 K, 5500 kPa | 623.89 ± 3.3
433.15 K, 7000 kPa | 644.7 ± 3.5
433.15 K, 8500 kPa | 664.54 ± 3.6
433.15 K, 10000 kPa | 683.41 ± 3.6
443.15 K, 540 kPa | 511.92 ± 2.9
